Values after ≈ are worked out from the molar mass of the structure shown. Positions of bridges follow the written chain, without caps; N, C: chain ends. Non-standard residues stand in square brackets, D forms with d. Residues, ends and D or L forms follow the SMILES beside them. Groups on a side chain read outwards from the residue. *: point of attachment. Palmitoyl(16-(5-tetrazolyl)) = O=C(CCCCCCCCCCCCCCCc1nnn[nH]1)*; Lys(CH2CO2H)2 = N[C@@H](CCCCN(CC(=O)O)CC(=O)O)C(=O)O; C18 diacid = O=C(O)CCCCCCCCCCCCCCCCC(=O)*; C17 diacid = O=C(O)CCCCCCCCCCCCCCCC(=O)*; Orn = NCCC[C@H](N)C(=O)O; AEEA = NCCOCCOCC(=O)O
How the values were obtained:
physchem = assay: physchem
Protocol: From a stock solution in vehicle, either H2O or 10 mM phosphate, containing 1 mg (as weighed) compound per ml, 8-11 aliquots are withdrawn and pH-adjusted individually with HCl/NaOH, to cover the whole pH range.

MC1 receptor = MC1 receptor (Homo sapiens, UniProt Q01726); assay: biochemical
MC1 receptor, sequence (Q01726 whole entry): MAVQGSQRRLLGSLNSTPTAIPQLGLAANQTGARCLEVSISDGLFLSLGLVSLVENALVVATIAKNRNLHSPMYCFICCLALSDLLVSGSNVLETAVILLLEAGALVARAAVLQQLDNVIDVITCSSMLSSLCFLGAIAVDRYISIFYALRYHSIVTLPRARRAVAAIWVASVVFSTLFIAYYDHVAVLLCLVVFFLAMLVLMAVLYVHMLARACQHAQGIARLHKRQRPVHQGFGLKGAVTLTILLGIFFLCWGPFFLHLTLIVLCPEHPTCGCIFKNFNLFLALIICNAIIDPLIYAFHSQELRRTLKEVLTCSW
Protocol: Assay (IV)—Melanocortin Receptor 1 (MC1) Binding Assay
The MC1 receptor binding assay was performed on BHK cell membranes stably expressing the MC1 receptor. The assay was performed in a total volume of 250 μl: 25 μl of ^125NDP-α-MSH (22 pM in final concentration), 25 μl of test compound/control and 200 μl of cell membrane (25 μg/ml). Test compounds were dissolved in DMSO. Radioactively labeled ligand, membranes and test compounds were diluted in buffer: 25 mM HEPES, pH 7.4, 0.1 mM CaCl2, 1 mM MgSO4, 1 mM EDTA, 0.1% HSA and 0.005% Tween™ 20. Alternatively, HSA may be substituted with ovalbumin. The samples were incubated at 30° C. for 90 min. in Costar round-bottom microtiter plates. Incubation was terminated by filtration on a Packard harvester filtermate. Rapid filtration through Packard Unifilter-96 GF/B filters pre-treated with polyetylenimine (PerkinElmer 6005277). The filters were washed with ice-cold 0.9% NaCl 8-10 times. The plates were air-dried at app. 55° C. for 30 min, and 50 μl Microscint 0 (Packard, cat. No. 6013616) was added to each well. The plates were counted in a Topcounter (1 min/well).
The data were analysed by non-linear regression analysis of binding curves, using the Windows™ program GraphPad™ Prism (GraphPad Software, USA).

| Structure (SMILES) | solubility (physchem; pH 5.3, Solubility Conc.) [µM] | solubility (physchem; pH 6, Solubility Conc.) [µM] | solubility (physchem; pH 6.3, Solubility Conc.) [µM] | solubility (physchem; pH 6.6, Solubility Conc.) [µM] | solubility (physchem; pH 7.2, Solubility Conc.) [µM] | solubility (physchem; pH 7.4, Solubility Conc.) [µM] | solubility (physchem; pH 7.5, Solubility Conc.) [µM] | solubility (physchem; pH 7.7, Solubility Conc.) [µM] | solubility (physchem; pH 7.9, Solubility Conc.) [µM] | Ki (MC1 receptor) [µM] | solubility (physchem; pH 6.1, Solubility Conc.) [µM] | solubility (physchem; pH 6.7, Solubility Conc.) [µM] | solubility (physchem; pH 6.8, Solubility Conc.) [µM] | solubility (physchem; pH 6.9, Solubility Conc.) [µM] | solubility (physchem; pH 8, Solubility Conc.) [µM] | solubility (physchem; pH 5.5, Solubility Conc.) [µM] | solubility (physchem; pH 5.8, Solubility Conc.) [µM] | solubility (physchem; pH 6.5, Solubility Conc.) [µM] | solubility (physchem; pH 7.1, Solubility Conc.) [µM] |
| --- | --- | --- | --- | --- | --- | --- | --- | --- | --- | --- | --- | --- | --- | --- | --- | --- | --- | --- | --- |
| CC(=O)N[C@H]1CCCCNC(=O)CC[C@@H](C(=O)N2CCC[C@H]2C(=O)N2CCC[C@H]2C(=O)N[C@@H](CCCNC(=N)N)C(=O)N[C@@H](CC(=O)O)C(=O)N[C@@H](CCCCN(CC(=O)O)CC(=O)O)C(=O)N[C@@H](CCCCNC(=O)COCCOCCNC(=O)CCCCCCCCCCCCCCCc2nnn[nH]2)C(N)=O)NC(=O)[C@H](Cc2c[nH]c3ccccc23)NC(=O)[C@H](CCCNC(=N)N)NC(=O)[C@@H](Cc2ccccc2)NC(=O)[C@H](Cc2c[nH]cn2)NC1=O [Example 21, Ac-c[Lys-His-D-Phe-Arg-Trp-Glu]-Pro-Pro-Arg-Asp-Lys(biscarboxymethyl)-Lys[(2-{2-[16-(tetrazol-5-yl)hexadecanoylamino]ethoxy}ethoxy)acetyl]-NH2] (Ac-KH[dF]RWEPPRD[Lys(CH2CO2H)2]K([AEEA-Palmitoyl(16-(5-tetrazolyl))])-NH2; lactam 1-6) | 38 (≈ 84.2 µg/mL) | 31 (≈ 68.7 µg/mL) | 36 (≈ 79.7 µg/mL) | 47 (≈ 104 µg/mL) | 90 (≈ 199 µg/mL) | 175 (≈ 388 µg/mL) | 276 (≈ 611 µg/mL) | 360 (≈ 797 µg/mL) | 366 (≈ 811 µg/mL) | > 10 |  |  |  |  |  |  |  |  |  |
| CC(=O)N[C@H]1CCCNC(=O)CC[C@@H](C(=O)N2CCC[C@H]2C(=O)N2CCC[C@H]2C(=O)N[C@@H](Cc2c[nH]cn2)C(=O)N[C@@H](CCC(=O)O)C(=O)N[C@@H](CCCCN(CC(=O)O)CC(=O)O)C(=O)N[C@@H](CCCCNC(=O)COCCOCCNC(=O)CCCCCCCCCCCCCCCC(=O)O)C(N)=O)NC(=O)[C@H](Cc2c[nH]c3ccccc23)NC(=O)[C@H](CCCNC(=N)N)NC(=O)[C@@H](Cc2ccccc2)NC(=O)[C@H](Cc2c[nH]cn2)NC1=O [Example 22, Ac-c[Orn-His-D-Phe-Arg-Trp-Glu]-Pro-Pro-His-Glu-Lys(biscarboxymethyl)-Lys({2-[2-(16-carboxyhexadecanoylamino)ethoxy]ethoxy}acetyl)-NH2] (Ac-[Orn]H[dF]RWEPPHE[Lys(CH2CO2H)2]K([AEEA-C17 diacid])-NH2; lactam 1-6) |  |  | 173 (≈ 376 µg/mL) |  | 447 (≈ 971 µg/mL) | 438 (≈ 951 µg/mL) |  |  |  | > 10 | 134 (≈ 291 µg/mL) | 284 (≈ 617 µg/mL) | 444 (≈ 964 µg/mL) | 443 (≈ 962 µg/mL) | 468 (≈ 1020 µg/mL) |  |  |  |  |
| CC(=O)N[C@H]1CCC(=O)NCCC[C@@H](C(=O)N2CCC[C@H]2C(=O)N2CCC[C@H]2C(=O)N[C@@H](CC(=O)O)C(=O)N[C@@H](CCCCN(CC(=O)O)CC(=O)O)C(=O)N[C@@H](CCCCNC(=O)COCCOCCNC(=O)CCCCCCCCCCCCCCCCC(=O)O)C(N)=O)NC(=O)[C@H](Cc2c[nH]c3ccccc23)NC(=O)[C@H](CCCNC(=N)N)NC(=O)[C@@H](Cc2ccccc2)NC(=O)[C@H](Cc2c[nH]cn2)NC1=O [Example 26, Ac-c[Glu-His-D-Phe-Arg-Trp-Orn]-Pro-Pro-Asp-Lys(biscarboxymethyl)-Lys({2-[2-(17-carboxyheptadecanoylamino)ethoxy]ethoxy}acetyl)-NH2] (Ac-EH[dF]RW[Orn]PPD[Lys(CH2CO2H)2]K([AEEA-C18 diacid])-NH2; lactam 1-6) |  |  |  |  |  | 482 (≈ 981 µg/mL) |  | 474 (≈ 964 µg/mL) | 478 (≈ 972 µg/mL) | > 10 | 474 (≈ 964 µg/mL) |  | 461 (≈ 938 µg/mL) |  |  | 49 (≈ 99.7 µg/mL) | 325 (≈ 661 µg/mL) | 478 (≈ 972 µg/mL) | 476 (≈ 968 µg/mL) |

From patent US20130012432A1, “Peptides for Treatment of Obesity” (Novo Nordisk A/S, priority 2010, published 2013)
